Source: ChEMBL document CHEMBL2029316, “Linker-based hemisuccinate derivatives of artemisinin: synthesis and antimalarial assessment against multidrug-resistant Plasmodium yoelii nigeriensis in mice” (J Med Chem, 2012)
Activity calls are given as the source filed them. The calls are words filed in the database; no cut-off is given here.

Legend:
[1] = test system: Plasmodium yoelii nigeriensis; assay: Antimalarial activity against chloroquine-, mefloquine-, halofantrine-resistant Plasmodium yoelii nigeriensis blood stream schizonts infected in Swiss mouse assessed as suppression of parasitemia at 48 mg/kg, im administered once daily for 4 days relative to control; assay type: functional; conditions: route intramuscular
[2] = test system: Plasmodium yoelii nigeriensis; assay: Antimalarial activity against chloroquine-, mefloquine-, halofantrine-resistant Plasmodium yoelii nigeriensis blood stream schizonts infected in Swiss mouse assessed as disease cured mouse at 24 mg/kg, im administered once daily for 4 days measured on day 28; assay type: functional, organism-based; design: dose 24 mg/kg
[3] = test system: Plasmodium yoelii nigeriensis; assay: Antimalarial activity against chloroquine-, mefloquine-, halofantrine-resistant Plasmodium yoelii nigeriensis blood stream schizonts infected in Swiss mouse assessed as suppression of parasitemia at 24 mg/kg, im administered once daily for 4 days relative to control; assay type: functional; conditions: route intramuscular
[4] = Lipophilicity, log P of the compound; assay type: physicochemical; conditions: octanol/water
[5] = test system: Plasmodium yoelii nigeriensis; assay: Antimalarial activity against chloroquine-, mefloquine-, halofantrine-resistant Plasmodium yoelii nigeriensis infected in Swiss mouse assessed as protection from infection at 3 to 48 mg/kg, im administered once daily for 4 days measured on day 28 relative to artesunic acid; assay type: functional; conditions: dose mg/kg 3-48; route intramuscular
[6] = test system: Plasmodium yoelii nigeriensis; assay: Antimalarial activity against chloroquine-, mefloquine-, halofantrine-resistant Plasmodium yoelii nigeriensis blood stream schizonts infected in Swiss mouse assessed as suppression of parasitemia at 6 mg/kg, im administered once daily for 4 days relative to control; assay type: functional; conditions: route intramuscular
[7] = test system: Plasmodium yoelii nigeriensis; assay: Antimalarial activity against chloroquine-, mefloquine-, halofantrine-resistant Plasmodium yoelii nigeriensis blood stream schizonts infected in Swiss mouse assessed as disease cured mouse at 12 mg/kg, im administered once daily for 4 days measured on day 28; assay type: functional, organism-based; design: dose 12 mg/kg
[8] = test system: Plasmodium yoelii nigeriensis; assay: Antimalarial activity against chloroquine-, mefloquine-, halofantrine-resistant Plasmodium yoelii nigeriensis blood stream schizonts infected in Swiss mouse assessed as disease cured mouse at 6 mg/kg, im administered once daily for 4 days measured on day 28; assay type: functional, organism-based; design: dose 6 mg/kg
[9] = test system: Plasmodium yoelii nigeriensis; assay: Antimalarial activity against chloroquine-, mefloquine-, halofantrine-resistant Plasmodium yoelii nigeriensis blood stream schizonts infected in Swiss mouse assessed as disease cured mouse at 48 mg/kg, im administered once daily for 4 days measured on day 28; assay type: functional, organism-based; design: dose 48 mg/kg
[10] = test system: Plasmodium yoelii nigeriensis; assay: Antimalarial activity against chloroquine-, mefloquine-, halofantrine-resistant Plasmodium yoelii nigeriensis blood stream schizonts infected in Swiss mouse assessed as suppression of parasitemia at 12 mg/kg, im administered once daily for 4 days relative to control; assay type: functional; conditions: route intramuscular
[11] = test system: Plasmodium yoelii nigeriensis; assay: Antimalarial activity against chloroquine-, mefloquine-, halofantrine-resistant Plasmodium yoelii nigeriensis blood stream schizonts infected in Swiss mouse assessed as disease cured mouse at 3 mg/kg, im administered once daily for 4 days measured on day 28; assay type: functional, organism-based; design: dose 3 mg/kg
[12] = test system: Plasmodium yoelii nigeriensis; assay: Antimalarial activity against chloroquine-, mefloquine-, halofantrine-resistant Plasmodium yoelii nigeriensis blood stream schizonts infected in Swiss mouse assessed as suppression of parasitemia at 3 mg/kg, im administered once daily for 4 days relative to control; assay type: functional; conditions: route intramuscular
[13] = Drug degradation in aqueous Na2CO3 under ambient temperature within 48 hrs; assay type: physicochemical; conditions: buffer
[14] = Drug degradation in aqueous NaHCO3 under ambient temperature within 48 hrs; assay type: physicochemical; conditions: buffer

SMILES | Activity [1] | Activity [2] | Activity [3] | logP [4] | fold change (FC) [5] | Activity [6] | Activity [7] | Activity [8] | Activity [9] | Activity [10] | Activity [11] | Activity [12] | Drug degradation [13] | Drug degradation [14]
C[C@H]1[C@@H](OCCCCCCCCCCCCO)O[C@@H]2O[C@@]3(C)CC[C@H]4[C@H](C)CC[C@@H]1[C@@]24OO3 | 100% | inactive | 100% | 6.89 |  |  |  |  |  |  |  |  |  | 
C[C@H]1[C@@H](OCCCCCCCCCCCCOC(=O)CCC(=O)O)O[C@@H]2O[C@@]3(C)CC[C@H]4[C@H](C)CC[C@@H]1[C@@]24OO3 | 100% | Active | 100% | 6.78 | 2 | 57.09% | inactive | inactive | Active | 71.27% |  |  |  | 
C[C@H]1[C@@H](OCCOCCOCCO)O[C@@H]2O[C@@]3(C)CC[C@H]4[C@H](C)CC[C@@H]1[C@@]24OO3 | 100% | inactive | 100% | 2.68 |  |  | inactive |  |  | 100% |  |  |  | 
CCO[C@H]1O[C@@H]2O[C@@]3(C)CC[C@H]4[C@H](C)CC[C@@H]([C@H]1C)[C@@]24OO3 [ARTEMOTIL] |  |  |  |  |  | 100% |  | Active |  |  | inactive | 100% |  | 
C[C@H]1[C@@H](OCCCCCCCCCCO)O[C@@H]2O[C@@]3(C)CC[C@H]4[C@H](C)CC[C@@H]1[C@@]24OO3 | 100% |  | 100% | 6.05 |  | 100% | inactive | inactive | Active | 100% |  |  |  | 
C[C@H]1[C@@H](OCCOCCOCCOCCO)O[C@@H]2O[C@@]3(C)CC[C@H]4[C@H](C)CC[C@@H]1[C@@]24OO3 | 100% | inactive | 100% | 2.52 |  |  | inactive |  |  | 100% |  |  |  | 
C[C@H]1[C@@H](OCCOCCOC(=O)CCC(=O)O)O[C@@H]2O[C@@]3(C)CC[C@H]4[C@H](C)CC[C@@H]1[C@@]24OO3 | 100% |  |  | 2.73 |  |  |  |  |  |  |  |  |  | 
C[C@H]1[C@@H](OCCOC(=O)CCC(=O)O)O[C@@H]2O[C@@]3(C)CC[C@H]4[C@H](C)CC[C@@H]1[C@@]24OO3 | 100% |  |  | 2.89 |  |  |  |  | inactive |  |  |  |  | 
C[C@H]1[C@@H](OCCOCCO)O[C@@H]2O[C@@]3(C)CC[C@H]4[C@H](C)CC[C@@H]1[C@@]24OO3 | 100% | Active | 100% | 2.83 |  | 100% |  | inactive | Active | 100% |  |  |  | 
C[C@H]1[C@@H](OCCCCOC(=O)CCC(=O)O)O[C@@H]2O[C@@]3(C)CC[C@H]4[C@H](C)CC[C@@H]1[C@@]24OO3 | 100% |  |  | 3.45 |  |  |  |  |  |  |  |  |  | 
C[C@H]1[C@@H](OCCCCCCCCCCOC(=O)CCC(=O)O)O[C@@H]2O[C@@]3(C)CC[C@H]4[C@H](C)CC[C@@H]1[C@@]24OO3 | 100% |  | 100% | 5.95 |  |  | inactive |  | Active | 98.18% |  |  | Not Active | Not Active
C[C@H]1[C@H](OC(=O)CCC(=O)O)O[C@@H]2O[C@@]3(C)CC[C@H]4[C@H](C)CC[C@@H]1[C@@]24OO3 [ARTESUNATE] | 100% | inactive | 100% |  |  |  | inactive |  | Active | 96.36% |  |  | Active | Active
C[C@H]1[C@@H](OCCCCO)O[C@@H]2OC3(C)CC[C@H]4[C@H](C)CC[C@@H]1[C@@]24OO3 | 100% | Active | 100% | 3.55 |  | 100% | Active |  | Active | 100% |  | 98.3% |  | 
C[C@H]1[C@@H](OCCCCCCCCO)O[C@@H]2O[C@@]3(C)CC[C@H]4[C@H](C)CC[C@@H]1[C@@]24OO3 | 100% | Active | 100% | 5.22 |  | 100% | Active |  | Active | 100% |  |  |  | 
C[C@H]1[C@@H](OCCO)O[C@@H]2O[C@@]3(C)CC[C@H]4[C@H](C)CC[C@@H]1[C@@]24OO3 | 100% | Active | 100% | 2.99 |  | 100% |  |  | Active | 100% |  |  |  | 
C[C@H]1[C@@H](OCCCOC(=O)CCC(=O)O)O[C@@H]2O[C@@]3(C)CC[C@H]4[C@H](C)CC[C@@H]1[C@@]24OO3 | 100% |  |  | 2.99 |  |  |  |  | inactive |  |  |  |  | 
C[C@H]1[C@@H](OCCCCCCCCOC(=O)CCC(=O)O)O[C@@H]2O[C@@]3(C)CC[C@H]4[C@H](C)CC[C@@H]1[C@@]24OO3 | 100% | Active | 100% | 5.12 | 2 |  | inactive |  | Active | 100% |  |  |  | 
C[C@H]1[C@@H](OCCCCCCOC(=O)CCC(=O)O)O[C@@H]2O[C@@]3(C)CC[C@H]4[C@H](C)CC[C@@H]1[C@@]24OO3 | 98.55% |  |  | 4.28 |  |  |  |  | inactive |  |  |  |  | 
C[C@H]1[C@@H](OCCCCCOC(=O)CCC(=O)O)O[C@@H]2O[C@@]3(C)CC[C@H]4[C@H](C)CC[C@@H]1[C@@]24OO3 | 94.91% | inactive | 92.73% | 3.86 |  |  |  |  | inactive |  |  |  |  | 
C[C@H]1[C@@H](OCCCO)O[C@@H]2O[C@@]3(C)CC[C@H]4[C@H](C)CC[C@@H]1[C@@]24OO3 | 100% | Active | 100% | 3.1 |  | 100% |  |  | Active | 100% | inactive | 98.3% |  | 
C[C@H]1[C@@H](OCCCCCCO)O[C@@H]2O[C@@]3(C)CC[C@H]4[C@H](C)CC[C@@H]1[C@@]24OO3 | 100% | Active | 100% | 4.38 |  | 100% | Active |  | Active | 100% | inactive | 100% |  | 
C[C@H]1[C@@H](OCCOCCOCCOC(=O)CCC(=O)O)O[C@@H]2O[C@@]3(C)CC[C@H]4[C@H](C)CC[C@@H]1[C@@]24OO3 | 92% |  |  | 2.54 |  |  |  |  |  |  |  |  |  | 
C[C@H]1[C@@H](OCCCCCCCCCOC(=O)CCC(=O)O)O[C@@H]2O[C@@]3(C)CC[C@H]4[C@H](C)CC[C@@H]1[C@@]24OO3 (mixture of isomers) | 100% | inactive | 93.09% | 5.53 |  |  | inactive |  | Active | 67.27% |  |  |  | 
C[C@H]1[C@@H](OCCOCCOCCOCCOC(=O)CCC(=O)O)O[C@@H]2O[C@@]3(C)CC[C@H]4[C@H](C)CC[C@@H]1[C@@]24OO3 | 97% |  |  | 2.42 |  |  |  |  | inactive |  |  |  |  | 
C[C@H]1[C@@H](OCCCCCO)O[C@@H]2O[C@@]3(C)CC[C@H]4[C@H](C)CC[C@@H]1[C@@]24OO3 | 100% | Active | 100% | 3.97 |  | 100% | Active |  | Active | 100% |  |  |  | 
